{
  "source": "patent US10517870B2",
  "about": "“Aryl substituted bicycle heteroaryl compounds” (Bristol-Myers Squibb Company, priority 2015, dated 2019)",
  "key": {"[1]": {"system": "Saos-2 (HPV−) cells", "test": "Cell proliferation/viability assay, Saos-2 cells", "format": "cell-based", "settings": "Homo sapiens, SAOS-2, 96 h, read-out: Saos-2 (HPV−) Proliferation IC50 (μM)", "experimental": "Caski (catalog number CRL-1550), SiHa (catalog number HTB-35), C33A (catalog number HTB-31), Saos-2 (ATCC HTB-85), and Hela (catalog number CCL-2) cells were obtained from the American Type Culture Collection (ATCC). The human cervical carcinoma cell lines Caski. SiHa, Hela and C33A, and the human osteosarcoma cell line Saos-2, and the human keratinocyte cell line HaCaT were cultured in Dulbecco's Modified Eagle Medium (DMEM, Invitrogen catalog number 11965-092) supplemented with 10% fetal bovine serum. The colorectal carcinoma cell line HCT-116 was cultured in Roswell Park Memorial Institute-1640 Medium (Invitrogen catalog number 11875-093) supplemented with 10% FBS. All cells were incubated at 37° C. in a humidified atmosphere with 5% CO2 in air. To establish the SCHPV-18 cell line, one million primary neonatal human foreskin keratinocytes (Invitrogen, catalog no. C-001-5C), cultured in KBM Gold-keratinocvte cell basal medium (Lonza, catalog no. 192060), were electroporated with 5 μg HPV-18 plasmid DNA (ATCC catalog no. 45152D) using the Amaxa Nucleofector II on setting T-007. Cells were co-transfected with 2 μg plasmid pZSGreen1-N1 (Clontech catalog no. 632448) encoding G418 resistance, and cells were selected for four days in 100 μg/ml G418, after which selection was removed. Cells were maintained in culture six months prior to compound testing. Integration of the HPV 18 genome was confirmed by Southern blot. Control cells transfected in parallel with pZSGreen1-N1 alone became senescent four days after selection and the culture could not be expanded. SCHPV-18 cells were maintained in E medium (Fehrmann F, Laimins L A. Human papillomavirus type 31 life cycle: methods for study using tissue culture models. Methods Mol Biol 2005; 292:317-330).\nFor proliferation assays, cells were plated in white polystyrene 96-well plates (Costar catalog number 3917) for CellTiter Glo viability assays or 96-well special optics plates (Costar cat #3614) for CellTiter Blue viability assays. Cells were plated in the appropriate growth medium without antibiotics. Two hours after cell plating, a 200× compound stock diluted in DMSO was added to a final concentration of 0.5%. Plates were incubated at 37° C., for 4 days and then cell viability was assessed using either CellTiter Blue (Promega catalog number G8081) or CellTiter Glo (Promega catalog number G7572) according to the manufacturer's instructions. For the CellTiter Blue viability assay, data was collected using the SpectraMax Gemini EM (Molecular Devices) with an excitation wavelength of 530 nm and emission wavelength of 590 nm. For the CellTiter Glo viability assay, data was collected using the Envision Mulitlabel Reader (Perkin Elmer catalog number 2104-0010). To calculate IC50 and EC50 values, percent inhibition curves were fit using a four-parameter logistic formula [y=A+[…]], where A and B denote minimal and maximal % inhibition, respectively, C is the IC50 value, D is the Hill slope, and x represents compound concentration.\nTable C, below, sets out the results obtained employing various compounds of the invention tested for their effects on proliferation of such cells. Caski or SiHa cells, transformed by HPV 16, Hela cells, transformed by HPV 18, or HPV-negative control cell lines (Saos-2 or C33a) were treated with various compounds. […] Unlike the HPV-negative Saos-2 or C33a cell lines, the HPV-transformed cell lines rely on the presence of HPV for their continued proliferation. Therefore, a comparison of IC50 values from HPV-transformed cell lines with IC50 values obtained from HPV-negative cell lines can be used to test for compound selectivity."}, "[2]": {"target": "T1, PAR4 (Homo sapiens, UniProt Q96RI0)", "T1 construct": "expressed in transfected cells; host or cells: HEK293 PAR4 Clone 1.2A", "T1 sequence (Q96RI0 18-385)": "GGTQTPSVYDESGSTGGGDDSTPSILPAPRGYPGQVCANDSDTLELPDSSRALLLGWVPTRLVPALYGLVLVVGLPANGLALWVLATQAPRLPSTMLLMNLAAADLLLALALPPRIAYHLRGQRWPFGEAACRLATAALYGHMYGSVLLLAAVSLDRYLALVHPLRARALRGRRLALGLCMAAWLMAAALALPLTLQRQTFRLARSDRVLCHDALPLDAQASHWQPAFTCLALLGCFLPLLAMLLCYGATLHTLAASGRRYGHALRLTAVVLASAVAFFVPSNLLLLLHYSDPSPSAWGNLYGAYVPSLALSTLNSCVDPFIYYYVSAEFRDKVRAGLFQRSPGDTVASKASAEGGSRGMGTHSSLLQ", "test": "PAR4 FLIPR assay (calcium mobilization, antagonist activity) in PAR4-expressing HEK293 cells", "format": "cell-based", "from_the_text": "The FLIPR assay is an exemplary in vitro assay for measuring the activity of the PAR4 antagonists of the present invention. In this assay, intracellular calcium mobilization is induced in PAR4 expressing cells by a PAR4 agonist and calcium mobilization is monitored.\nHEK293 cells stably expressing PAR4 were generated by a standard method of transfection of human PAR4 (F2R23) cDNA expression vector and selected based on PAR4 protein expression or mRNA expression. […] These cells also express endogenous PAR1 and can elicit calcium signal upon stimulation with PAR1 agonist peptide. Therefore, the same cells were also used to determine selectivity against PAR1 and agonist activity for both receptors. Cells from HEK293 PAR4 Clone 1.2A (BMS Arctic ID 383940) were propagated and used for calcium mobilization studies.\nFLIPR-based calcium mobilization assay in HEK293 cells was used to measure PAR4 antagonism, agonism, and selectivity against PAR1. The activity of the PAR4 antagonists of the present invention were tested in PAR4 expressing cells by monitoring H-Ala-Phe(4-F)-[…]NH2-induced intracellular calcium mobilization. Counter screens for agonist activity and PAR1 antagonist activity were also performed. Briefly, PAR1/PAR4-expressing HEK293 cells were grown in DMEM (Life Technology, Grand Island, N.Y.) containing 10% heat-inactivated FBS, 1% Penicillin-Streptomycin, 10 μg/mL blasticidin, and 100 μg/mL Zeocin at 37° C. with 5% CO2. Cells were plated overnight prior to the experiment in a black 384-well Purecoat Amine clear bottom plate (Becton Dickinson Biosciences, San Jose, Calif.) at 10,000 cells/well in 30 μL growth medium and incubated in a humidified chamber at 37° C. with 5% CO2 overnight. Prior to compound addition, the cell medium was replaced with 40 μL of IX calcium and magnesium-containing Hank's Balanced Saline Solution (HBSS) (with 20 mM HEPES) and 1:1000 diluted fluorescent calcium indicator (Codex Biosolutions, Gaithersburg, Md.). After a 30 minute incubation period at 37° C., and a further 30 minute incubation and equilibration period at room temperature, 20 μL test compound (diluted in 1×HBSS buffer) was added at various concentrations at 0.17% dimethyl sulfoxide (DMSO) final concentration. Changes in fluorescence intensity were measured using a Functional Drug Screening System (FDSS, Hamamatsu, Japan) to determine agonist activities. The cells were then incubated for 30 minutes at room temperature followed by addition of 20 μL of agonist peptide for antagonist activity measurement. […] Compound potency was derived from 11-point concentration-response curves."}},
  "data": [
    {"molecule": "COc1ccc(-c2cc(C)cc3nc(OC(F)F)cnc23)cc1", "note": "[Example 6, 2-(difluoromethoxy)-5-(4-methoxyphenyl)-7-methylquinoxaline]", "values": [
      {"measurement": "IC50", "setting": "[1]", "result": 48, "unit": "µM"},
      {"measurement": "IC50", "setting": "[2]", "result": 2.4, "unit": "µM"}
    ]}
  ]
}
